Experimental data taken from patent publication US7973051B2 (Hoffman-La Roche Inc., priority 2007, dated 2011).

target: T1, human liver FBPase (Homo sapiens, UniProt P09467); assay: FBPase assay: inorganic phosphate release (malachite green); format: biochemical; conditions: recombinant human liver FBPase, 50 μM fructose-1,6-bisphosphate, read-out at 620 nm
T1 construct: made in house; host or cells: E. coli
T1 sequence (P09467 2-338 limits assumed): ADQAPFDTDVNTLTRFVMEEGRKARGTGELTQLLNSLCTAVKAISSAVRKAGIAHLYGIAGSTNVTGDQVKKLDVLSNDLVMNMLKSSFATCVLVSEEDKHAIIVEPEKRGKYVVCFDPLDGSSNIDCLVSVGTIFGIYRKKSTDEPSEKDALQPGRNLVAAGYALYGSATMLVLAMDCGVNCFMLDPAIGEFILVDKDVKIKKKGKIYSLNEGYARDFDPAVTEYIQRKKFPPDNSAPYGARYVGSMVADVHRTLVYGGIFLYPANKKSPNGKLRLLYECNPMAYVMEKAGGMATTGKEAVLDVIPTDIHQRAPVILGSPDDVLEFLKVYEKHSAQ
Method: The following tests were carried out for evaluating the inhibitory activity of the compounds of the present invention against human liver FBPase (Swissprot Data base reference P09467, entry F16P_HUMAN).
Human liver FBPase cDNA (NM_000507) was purchased from Origene Technologies, Inc, subcloned in a vector for expression in E. Coli., and sequenced. Recombinant human liver FBPase (hlFBPase) was purified according to the following protocol that uses heat denaturation similarly to that described by El-Maghrabi et. al. [El-Maghrabi, M. R. et al. “Isolation of a human liver fructose-1,6-bisphosphatase cDNA and expression of the protein in Escherichia coli.” J Biol Chem 268:9466-9472, 1993.]. Briefly, E. coli cells, transiently expressing very high levels of soluble and active human liver FBPase, were suspended in 20 mM Tris-HCl pH 7.5, 1 mM EDTA, 1 mM DTT and were lysed by French press. The soluble extract was heat denatured at 65° C. for 5 min, and insoluble, denatured proteins were removed by centrifugation. The extract was then applied to a BioRad Macro-Prep High Q column equilibrated with 20 mM Tris-HCl pH 7.5, 1 mM EDTA, 1 mM DTT and the flow-through (containing FBPase activity) was collected and applied to a BioRad Macro-Prep HS column equilibrated with 20 mM HEPES pH 7.2, 1 mM DTT. A gradient of increasing NaCl concentration was then applied to the HS column and fractions were collected. Fractions containing active FBPase were pooled and further purified by size exclusion chromatography on a Sephacryl S200 column equilibrated in 20 mM Tris-HCl pH 7.5, 150 mM NaCl, 1 mM EDTA, 1 mM DTT. Purity of the enzyme preparation was >90% as assessed by Mass spectrometry.
Recombinant human liver FBPase (hlFBPase) activity was assayed through measuring the inorganic phosphate release that results from the hydrolysis of Fructose-1,6-bisphosphate by the enzyme. As described by Baykov A. A. et al. in [Baykov A. A et al., “Malachite Green procedure for orthophosphate determination and its use in alkaline phosphatase-based enzyme immunoassays”. Anal. Biochem., 171:266-270, 1988], inorganic phosphate can be readily quantified by spectrophotometry at 620 nm after complexation with ammonium molybdate/malachite green reagent. Enzymatic reaction was carried out with modifications of the procedure described by Wright S. W. et al. [Wright S. W. et al., “Anilinoquinazoline inhibitors of Fructose-1,6-bisphosphatase bind to a novel allosteric site: synthesis, in vitro characterization, and X-ray crystallography”. J. Med. Chem. 45:3865-3877, 2002]. Specifically, the reaction was carried out in 96 well plates in a final volume of 100 μl in the presence or in the absence of allosteric inhibitors. Reaction was started adding 25 ng of hlFBPase to the reaction mixture containing 50 mM HEPES-KOH buffer pH 7.2, 2 mM MgCl2, 2 mM EDTA, 1 mM DTT, 50 μM fructose-1,6-bisphosphate and 1% DMSO. After 50 minutes incubation at room temperature, the phosphate released was allowed to form a colored complex for 10 min by adding 150 μl of ammonium molybdate/malachite green reagent containing 0.03% malachite green, 0.2% ammonium molybdate, 0.05% Triton X-100 and 0.7 M H2SO4 in water that was stirred for 30 min at room temperature and filtered through 0.2 μm filter. Under these conditions, the assay was linear with time and able to detect FBPase inhibition after spectrophotometric read-out at 620 nm.

Structure (SMILES)	IC50 [nM]
CCc1sc(NC(=O)NS(=O)(=O)c2cc(C)c(CCOC(C)=O)s2)nc1C(C)C [Example 75, 2-[5-({[(5-Ethyl-4-isopropyl-1,3-thiazol-2-yl)carbamoyl]amino}sulfonyl)-3-methyl-2-thienyl]ethyl acetate]	256
CCc1nc(NC(=O)NS(=O)(=O)c2cc(C)c(CCOC)s2)sc1CC [Example 63, N-[(4,5-Diethyl-1,3-thiazol-2-yl)carbamoyl]-5-(2-methoxyethyl)-4-methylthiophene-2-sulfonamide]	393
COc1sc(NC(=O)NS(=O)(=O)c2cc(C)c(CCOC(C)=O)s2)nc1C [Example 74, 2-[5-({[(5-Methoxy-4-methyl-1,3-thiazol-2-yl)carbamoyl]amino}sulfonyl)-3-methyl-2-thienyl]ethyl acetate]	454
Cc1cc(S(=O)(=O)NC(=O)Nc2nc(-c3ccccc3)c(C)s2)cs1 [Example 65, 5-Methyl-N-[(5-methyl-4-phenyl-1,3-thiazol-2-yl)carbamoyl]thiophene-3-sulfonamide]	300
CCc1sc(NC(=O)NS(=O)(=O)c2csc(C)c2)nc1C(C)C [Example 78, N-[(5-Ethyl-4-isopropyl-1,3-thiazol-2-yl)carbamoyl]-5-methylthiophene-3-sulfonamide]	168
CCc1nc(NC(=O)NS(=O)(=O)c2cc(CCOC)c(C)s2)sc1Br [Example 59, N-[(5-Bromo-4-ethyl-1,3-thiazol-2-yl)carbamoyl]-4-(2-methoxyethyl)-5-methylthiophene-2-sulfonamide]	434
COCCn1cc(S(=O)(=O)NC(=O)Nc2ncc(Br)s2)c2ccccc21 [Example 31, N-[(5-Bromo-1,3-thiazol-2-yl)carbamoyl]-1-(2-methoxyethyl)-1H-indole-3-sulfonamide]	2250
CCc1sc(NC(=O)NS(=O)(=O)c2cc(C)c(CCOC(C)=O)s2)nc1C [Example 68, 2-[5-({[(5-Ethyl-4-methyl-1,3-thiazol-2-yl)carbamoyl]amino}sulfonyl)-3-methyl-2-thienyl]ethyl acetate]	149
COCCc1sc(S(=O)(=O)NC(=O)Nc2nc3c(OC)cccc3s2)cc1C [Example 89, N-[(4-Methoxy-1,3-benzothiazol-2-yl)carbamoyl]-5-(2-methoxyethyl)-4-methylthiophene-2-sulfonamide]	263
COCc1oc(S(=O)(=O)NC(=O)Nc2ncc(Br)s2)cc1C [Example 36, N-[(5-Bromo-1,3-thiazol-2-yl)carbamoyl]-5-(methoxymethyl)-4-methylfuran-2-sulfonamide]	315
CCc1nc(NC(=O)NS(=O)(=O)c2cc(C)c(CCOC)s2)sc1Br [Example 58, N-[(5-Bromo-4-ethyl-1,3-thiazol-2-yl)carbamoyl]-5-(2-methoxyethyl)-4-methylthiophene-2-sulfonamide]	155
Cn1cc(S(=O)(=O)NC(=O)Nc2ncc(Br)s2)c2cc(F)ccc21 [Example 26, N-[(5-Bromo-1,3-thiazol-2-yl)carbamoyl]-5-fluoro-1-methyl-1H-indole-3-sulfonamide]	341
COc1sc(NC(=O)NS(=O)(=O)c2cn(C)c3c(OCC(N)=O)cccc23)nc1C [Example 53, 2-{[3-({[(5-Methoxy-4-methyl-1,3-thiazol-2-yl)carbamoyl]amino}sulfonyl)-1-methyl-1H-indol-7-yl]oxy}acetamide]	764
O=C(Nc1ncc(Br)s1)NS(=O)(=O)c1csc2c(Cl)cccc12 [Example 18, N-[(5-Bromo-1,3-thiazol-2-yl)carbamoyl]-7-chloro-1-benzothiophene-3-sulfonamide]	208
Cn1c(S(=O)(=O)NC(=O)Nc2ncc(Br)s2)cc2ccccc21 [Example 8, N-[(5-Bromo-1,3-thiazol-2-yl)carbamoyl]-1-methyl-1H-indole-2-sulfonamide]	1100
COCc1nc(NC(=O)NS(=O)(=O)c2cc(C)c(CCOC(C)=O)s2)sc1SC [Example 87, 2-{5-[({[4-(Methoxymethyl)-5-(methylthio)-1,3-thiazol-2-yl]carbamoyl}amino)sulfonyl]-3-methyl-2-thienyl}ethyl acetate]	501
COC(=O)c1ccc2c(S(=O)(=O)NC(=O)Nc3ncc(Br)s3)cn(C)c2c1 [Example 27, Methyl 3-({[(5-bromo-1,3-thiazol-2-yl)carbamoyl]amino}sulfonyl)-1-methyl-1H-indole-6-carboxylate]	450
O=C(Nc1ncc(Br)s1)NS(=O)(=O)c1cc2cccc(Cl)c2s1 [Example 19, N-[(5-Bromo-1,3-thiazol-2-yl)carbamoyl]-7-chloro-1-benzothiophene-2-sulfonamide]	268
COc1ccc2cc(S(=O)(=O)NC(=O)Nc3ncc(Br)s3)sc2c1Br [Example 15, 7-Bromo-N-[(5-bromo-1,3-thiazol-2-yl)carbamoyl]-6-methoxy-1-benzothiophene-2-sulfonamide]	141
COc1ccc2cc(S(=O)(=O)NC(=O)Nc3ncc(Br)s3)sc2c1 [Example 9, N-[(5-Bromo-1,3-thiazol-2-yl)carbamoyl]-6-methoxy-1-benzothiophene-2-sulfonamide]	88
O=C(Nc1ncc(Br)s1)NS(=O)(=O)c1cc2ccccc2s1 [Example 2, N-[(5-Bromo-1,3-thiazol-2-yl)carbamoyl]-1-benzothiophene-2-sulfonamide]	434
CCc1nc(NC(=O)NS(=O)(=O)c2cc(C)c(CCO)s2)sc1CC [Example 69, N-[(4,5-Diethyl-1,3-thiazol-2-yl)carbamoyl]-5-(2-hydroxyethyl)-4-methylthiophene-2-sulfonamide]	340
CCc1nc(NC(=O)NS(=O)(=O)c2csc(C)c2)sc1Br [Example 57, N-[(5-Bromo-4-ethyl-1,3-thiazol-2-yl)carbamoyl]-5-methylthiophene-3-sulfonamide]	188
COc1ccc2sc(S(=O)(=O)NC(=O)Nc3ncc(Br)s3)cc2c1 [Example 17, N-[(5-Bromo-1,3-thiazol-2-yl)carbamoyl]-5-methoxy-1-benzothiophene-2-sulfonamide]	167
O=C(Nc1ncc(Br)s1)NS(=O)(=O)c1cc2cccc(-c3ccncc3)c2s1 [Example 22, N-[(5-Bromo-1,3-thiazol-2-yl)carbamoyl]-7-pyridin-4-yl-1-benzothiophene-2-sulfonamide]	440
CCc1sc(NC(=O)NS(=O)(=O)c2cc(C)c(CCOC)s2)nc1-c1ccccc1 [Example 72, N-[(5-Ethyl-4-phenyl-1,3-thiazol-2-yl)carbamoyl]-5-(2-methoxyethyl)-4-methylthiophene-2-sulfonamide]	224
CCc1nc(NC(=O)NS(=O)(=O)c2csc(C)c2)sc1OC [Example 61, N-[(4-Ethyl-5-methoxy-1,3-thiazol-2-yl)carbamoyl]-5-methylthiophene-3-sulfonamide]	466
CCc1sc(NC(=O)NS(=O)(=O)c2cc(C)c(CCOC)s2)nc1C(C)C [Example 77, N-[(5-Ethyl-4-isopropyl-1,3-thiazol-2-yl)carbamoyl]-5-(2-methoxyethyl)-4-methylthiophene-2-sulfonamide]	366
Cn1cc(S(=O)(=O)NC(=O)Nc2ncc(Br)s2)c2cccc(OCC(N)=O)c21 [Example 51, 2-{[3-({[(5-Bromo-1,3-thiazol-2-yl)carbamoyl]amino}sulfonyl)-1-methyl-1H-indol-7-yl]oxy}acetamide]	137
